The results in this text go back to article PMC9528096, “A phase Ib study of camrelizumab in combination with apatinib and fuzuloparib in patients with recurrent or metastatic triple-negative breast cancer” (BMC Medicine, 2022).

The data set is described as follows: clinical. Further details: species or system human. To be noted: in vivo; for Tmax: human. The method, then: Adverse events were monitored throughout the study treatment from informed consent until 90 days after the last camrelizumab dose or 30 days after the last apatinib or fuzuloparib dose, whichever occurred later, and were graded according to the National Cancer Institute Common Terminology Criteria for Adverse Events version 5.0. Radiographic assessment was performed by computed tomography (CT) or magnetic resonance imaging (MRI) according to RECIST version 1.1 at baseline and every two cycles. Complete or partial responses were confirmed 4 weeks later. Blood samples for pharmacokinetic analysis of apatinib and fuzuloparib were collected in all patients enrolled in the dose-finding part and in six to eight patients enrolled in the dose-expansion part. To evaluate the pharmacokinetic data of single-agent apatinib, patients intended for pharmacokinetic analysis were given apatinib alone 3 days before combination treatment initiation. Blood samples were collected 30 min pre-dose, 30 min, 1 h, 2 h, 3 h, 4 h, 8 h, 12 h, and 24 h post-dose on day − 3 of cycle 0 and day 1 of cycle 1.
The primary endpoint was DLT in cycle 1.
Safety and antitumor activity analyses were performed in all patients who received at least one dose of the study treatment. Continuously distributed data were summarized as mean (standard deviation) or median (range). Categorical data were summarized by the number and percentage of patients in each category. Adverse events were summarized descriptively. Two-sided 95% confidence intervals (CIs) for ORR and DCR were calculated using the Clopper-Pearson method. The PFS, DOR, and 12-month OS rate and their corresponding 95% CIs were estimated using the Kaplan–Meier method. Analyses of safety and antitumor activity were performed with SAS version 9.4. Pharmacokinetic parameters were descriptively summarized with non-compartmental analysis using WinNonlin (version 8.2).

For orientation: Tmax means the time from dosing to the highest level.

Take `N#CC1(c2ccc(NC(=O)c3cccnc3NCc3ccncc3)cc2)CCCC1` [Apatinib, apatinib]: the Tmax is 2 h; the “Apatinib exposure before and after co-administration with fuzuloparib” value was “comparable”. Turning to `O=C(c1cc(Cc2n[nH]c(=O)c3ccccc23)ccc1F)N1CCn2nc(C(F)(F)F)nc2C1` [Fuzuloparib, fuzuloparib], the Tmax worked out at 3 h.
